This is an account of results in patent publication US12502362B2, “Inhibitors of nucleotidyltransferase superfamily enzymes as antibiotics” (priority 2017, dated 2025).

In one data set the test system is S. aureus (ATCC 29213). The data set is described as follows: MIC80 on S. aureus. It counts as cell-based, Staphylococcus aureus. As to conditions: ≥80% growth inhibition; for MIC80: Staphylococcus aureus, ATCC 29213 / MSSA, read-out: MIC80 S. aureus, S. aureus ATCC 29213 (MSSA); for MIC80 S. aureus: S. aureus ATCC 29213 (MSSA). On the procedure:
(§1) To further characterize the compounds, the minimal inhibitory concentration (MIC80) were determined for selected compounds. MIC80 is defined as the compound concentration at which ≥80% bacterial growth is inhibited compare to untreated controls. Meanwhile, for the selected compounds, cytotoxicity assays (CC50) were performed on a HepG2-derived hepatoblastoma cell line (HEPDES19). […] For CC50 evaluation, soluble tetrazolium dye (MTS) was used to measure mitochondrial toxicity in a human hepatoblastoma cell line (18). The bacteria (E. coli, S. saprophyticus and A. baumannii) used in MIC80 measurements were the same as that in the primary screening, but for Staphylococcus, S. aureus is used primarily because it is a common pathogen in Staphylococcaeae family, while S. saprophyticus is part of the normal human flora.

Data set [1] relates to S. aureus and/or S. saprophyticus. The data set is described as follows: MIC80 on S. aureus and/or S. saprophyticus. As to conditions: read-out: MIC80 against S. aureus and/or S. saprophyticus. It counts as cell-based. On the procedure:
as §1, with “(HEPDES19). […] For the MIC80 measurements, a 1.5 fold dilution series of the compounds was prepared in Mueller-Hinton II broth.” for “(HEPDES19).”, “flora. S. aureus (ATCC 29213) is methicillin-sensitive Staphylococcus aureus (MSSA) strain and it was used as a model strain to measure the MIC80.” for “flora.”

The nature of data set [2]: Cytotoxicity assay (CC50), MTS. It counts as cell-based, human. As to conditions: human, HepG2-derived hepatoblastoma cell line (HEPDES19), HEPDES19 cells. As for the experimental part:
as §1

Data set [3] relates to HepG2-derived hepatoblastoma cell line (HEPDES19). Nature of the data set: Cytotoxicity assay (CC50), MTS. The settings on record: HEPDES19 cells. It counts as cell-based, human. As for the experimental part: as §1
In another data set the test system is E. coli (ATCC 35218). Nature of the data set: microbe, parasite or virus in culture. In kind it is cell-based. As to conditions: for MIC80: Escherichia coli, ATCC35218, read-out: MIC80 E. coli, E. coli ATCC 35218; for MIC80 E. coli: E. coli ATCC 35218. As for the experimental part:
as §1

Data set [4] concerns S. aureus ATCC strains and MRSA. It counts as cell-based, Staphylococcus aureus.
In data set [5] the test system is Staphylococcus epidermidis. It counts as cell-based. As for the experimental part: (§2) It was also tested whether compounds #63 and #285 can inhibit other coagulase-negative Staphylococcus (CNS) including S. epidermidis, S. hominis, etc. […].
The subject of a further data set is Staphylococcus hominis. In kind it is cell-based. On the procedure: as §2
The test system of data set [6] is Coagulase negative Staphylococcus. Nature of the data set: Antibiotic susceptibility of coagulase negative Staphylococcus strains. In kind it is cell-based.
The mark [7] stands for this setting: Se1 (Staphylococcus epidermidis).
Where [8] appears, read: Se2 (Staphylococcus epidermidis).
Setting [9] is: Se3 (Staphylococcus epidermidis).
Setting [10] is: Se4 (Staphylococcus epidermidis).
Where [11] appears, read: Se5 (Staphylococcus epidermidis).
Setting [12] is: CNS1 (Coagulase negative Staphylococcus).
The mark [13] stands for this setting: CNS2 (Coagulase negative Staphylococcus).

≈ marks a conversion by molar mass, not a printed value. Like-named read-outs stand apart in the source and are kept apart here.

One may read the CC50 as the concentration that lowers cell viability or growth by half. A higher CC50 goes with lower toxicity to the cells.

Turning to `Cc1cc(O)c(=O)c(O)cc1-c1ccc(Br)cc1` [Compound 114], the figures for the MIC80 (with S. aureus (ATCC 29213); in [1]) were 19.8 µM (≈ 6.08 µg/mL) and less than 20 µM, respectively. In addition, the CC50 in [2] was less than 50 µM; in data set [3], 38 µM.
For `O=C(Oc1cccccc1=O)c1cccc(Cl)c1` [Compound 282], the MIC80 in the data set with S. aureus (ATCC 29213) was 18.2 µM (≈ 4.74 µg/mL); in [1], less than 20 µM; in the data set with E. coli (ATCC 35218), more than 100 µM. This compound also came in with a CC50 in data set [2] of more than 50 µM.
`Cc1cccc(C(=O)Oc2cccccc2=O)c1` [Compound 283]: the figures for the MIC80 (with S. aureus (ATCC 29213); in data set [1]; in the data set with E. coli (ATCC 35218)) were 15.4 µM (≈ 3.7 µg/mL), less than 20 µM and more than 100 µM, respectively. Moreover, the half-maximal cytotoxic concentration (CC50) in [2] was more than 50 µM; in data set [3], not below 100 µM.
Take `CC(=O)c1c(C)cc(O)c(=O)c(O)c1-c1ccc2ccccc2c1` [Compound 332]: in the data set with S. aureus (ATCC 29213), the “MIC80 S. aureus” value was determined as 19.8 µM (≈ 6.34 µg/mL). In addition, the CC50 in data set [3] amounted to 38 µM.
For the compound `O=C(O)c1cn(Cc2cccc3ccccc23)c2ccccc2c1=O` [Compound 432], the figures for the MIC80 (in the data set with S. aureus (ATCC 29213); in [1]) were 13.2 µM (≈ 4.35 µg/mL) and less than 20 µM, respectively.
As to `O=C(Cc1ccccc1)Sc1cccccc1=O` [Compound 680], in the data set with S. aureus (ATCC 29213), the “MIC80 S. aureus” value worked out at 29.6 µM (≈ 7.59 µg/mL). In the data set on E. coli (ATCC 35218), the “MIC80 E. coli” value came to 19.8 µM (≈ 5.08 µg/mL). In data set [3], this compound displayed a CC50 of more than 100 µM.
The matching figures for `O=C(Sc1cccccc1=O)c1ccc(C(F)(F)F)cc1` [Compound 682]: 19.8 µM (≈ 6.14 µg/mL), 66.7 µM (≈ 20.7 µg/mL) and 82.9 µM.
`Cc1ccc(S(=O)(=O)Oc2cc(C(C)C)cccc2=O)cc1` [Compound 688]: the “MIC80 S. aureus” value in the data set with S. aureus (ATCC 29213) worked out at 11.6 µM (≈ 3.69 µg/mL). The “MIC80 E. coli” value against E. coli (ATCC 35218) is more than 100 µM. Moreover, in data set [3], the CC50 stood at 27.5 µM.
On to `CN(C)[C@@H]1C(O)=C(C(N)=O)C(=O)[C@@]2(O)C(O)=C3C(=O)c4c(O)cccc4[C@@](C)(O)[C@H]3C[C@@H]12` [TET, Tetracycline], for which the Antibiotic susceptibility result in data set [4] (S. aureus ATCC 25923), in data set [4] (S. aureus ATCC 29213), in data set [4] (S. aureus ATCC BAA 976), in data set [4] (S. aureus ATCC BAA 977), in data set [4] (S. aureus ATCC BAA 1026) and in data set [4] (Sa1 (MRSA)) was “S” in each case. Moreover, the Antibiotic susceptibility result in data set [4] (Sa2 (MRSA)), in [4] (Sa3 (MRSA)), in data set [4] (Sa5 (MRSA)), in [4] (Sa6 (MRSA)), in [4] (Sa7 (MRSA)) and in data set [4] (Sa9 (MRSA)) was “S” in each case. For the same compound, the Antibiotic susceptibility entry in [4] (Sa11 (MRSA)), in [4] (Sa12 (MRSA)), in data set [4] (Sa14 (MRSA)), in data set [4] (Sa15 (MRSA)), in [4] (Sa16 (MRSA)) and in [4] (Sa17 (MRSA)) was “S” in each case. The Antibiotic susceptibility result in data set [4] (Sa18 (MRSA)), in data set [4] (Sa19 (MRSA)), in data set [4] (Sa20 (MRSA)), in data set [4] (Sa21 (MRSA)), in data set [4] (Sa22 (MRSA)) and in data set [4] (Sa23 (MRSA)) was “S” throughout. For the same compound, the Antibiotic susceptibility entry in data set [5] (setting [7]) is recorded as “S”; in [5] (setting [8]), “S”; in data set [5] (setting [9]), “S”; in data set [5] (setting [10]) it was “S”; in [5] (setting [11]), “S”; in the data set with Staphylococcus hominis (Sh1 (Staphylococcus hominis)), “R”. The Antibiotic susceptibility result in the data set on Staphylococcus hominis (Sh2 (Staphylococcus hominis)) is on record as “R”; with Staphylococcus hominis (Sh3 (Staphylococcus hominis)) it was “S”; in data set [6] (setting [12]) it was “S”; in data set [6] (setting [13]) it was “S”.
As to `CN(C)c1cc(NC(=O)CNC(C)(C)C)c(O)c2c1C[C@H]1C[C@H]3[C@H](N(C)C)C(O)=C(C(N)=O)C(=O)[C@@]3(O)C(O)=C1C2=O` [TGC, Tigecycline], the Antibiotic susceptibility entry in data set [4] (S. aureus ATCC 25923), in data set [4] (S. aureus ATCC 29213), in data set [4] (S. aureus ATCC BAA 976), in data set [4] (S. aureus ATCC BAA 977), in data set [4] (S. aureus ATCC BAA 1026) and in data set [4] (Sa1 (MRSA)) was “S” each time. In addition, the Antibiotic susceptibility result in data set [4] (Sa2 (MRSA)), in data set [4] (Sa3 (MRSA)), in [4] (Sa6 (MRSA)), in data set [4] (Sa7 (MRSA)), in [4] (Sa9 (MRSA)) and in data set [4] (Sa11 (MRSA)) was “S” in each case. Also, the Antibiotic susceptibility entry in data set [4] (Sa12 (MRSA)), in data set [4] (Sa14 (MRSA)), in data set [4] (Sa15 (MRSA)), in data set [4] (Sa16 (MRSA)), in data set [4] (Sa17 (MRSA)) and in data set [4] (Sa18 (MRSA)) was “S” each time. The Antibiotic susceptibility result in data set [4] (Sa19 (MRSA)), in [4] (Sa20 (MRSA)), in [4] (Sa21 (MRSA)), in data set [4] (Sa22 (MRSA)), in data set [4] (Sa23 (MRSA)) and in data set [5] (setting [7]) was “S” each time. Moreover, the Antibiotic susceptibility result (in [5] (setting [8]); in data set [5] (setting [9]); in data set [5] (setting [10]); in data set [5] (setting [11]); with Staphylococcus hominis (Sh1 (Staphylococcus hominis)); with Staphylococcus hominis (Sh2 (Staphylococcus hominis))) was “S” throughout. Besides, the Antibiotic susceptibility entry (with Staphylococcus hominis (Sh3 (Staphylococcus hominis)); in [6] (setting [12]); in data set [6] (setting [13])) was “S” in each case.
As for `CN[C@H](CC(C)C)C(=O)N[C@H]1C(=O)N[C@@H](CC(N)=O)C(=O)N[C@H]2C(=O)N[C@H]3C(=O)N[C@H](C(=O)N[C@H](C(=O)O)c4cc(O)cc(O)c4-c4cc3ccc4O)[C@H](O)c3ccc(c(Cl)c3)Oc3cc2cc(c3O[C@@H]2O[C@H](CO)[C@@H](O)[C@H](O)[C@H]2O[C@H]2C[C@](C)(N)[C@H](O)[C@H](C)O2)Oc2ccc(cc2Cl)[C@H]1O` [VAN, vancomycin], the Antibiotic susceptibility entry in data set [4] (S. aureus ATCC 25923), in [4] (S. aureus ATCC 29213), in data set [4] (S. aureus ATCC BAA 976), in data set [4] (S. aureus ATCC BAA 977), in [4] (S. aureus ATCC BAA 1026) and in [4] (Sa1 (MRSA)) was “S” throughout. Also, the Antibiotic susceptibility entry in data set [4] (Sa2 (MRSA)), in [4] (Sa3 (MRSA)), in [4] (Sa5 (MRSA)), in data set [4] (Sa6 (MRSA)), in data set [4] (Sa7 (MRSA)) and in [4] (Sa8 (MRSA)) was “S” in each case. For the same compound, the Antibiotic susceptibility result in data set [4] (Sa9 (MRSA)), in [4] (Sa10 (MRSA)), in data set [4] (Sa11 (MRSA)), in data set [4] (Sa12 (MRSA)), in [4] (Sa14 (MRSA)) and in data set [4] (Sa15 (MRSA)) was “S” each time. The Antibiotic susceptibility entry in [4] (Sa16 (MRSA)), in data set [4] (Sa17 (MRSA)), in data set [4] (Sa18 (MRSA)), in data set [4] (Sa19 (MRSA)), in data set [4] (Sa20 (MRSA)) and in [4] (Sa21 (MRSA)) was “S” throughout. The Antibiotic susceptibility result in [4] (Sa22 (MRSA)), in [4] (Sa23 (MRSA)), in [5] (setting [7]), in data set [5] (setting [8]), in [5] (setting [9]) and in [5] (setting [10]) was “S” in each case. Further, the Antibiotic susceptibility result (in data set [5] (setting [11]); with Staphylococcus hominis (Sh1 (Staphylococcus hominis)); in the data set with Staphylococcus hominis (Sh2 (Staphylococcus hominis)); in the data set on Staphylococcus hominis (Sh3 (Staphylococcus hominis)); in data set [6] (setting [12]); in data set [6] (setting [13])) was “S” in each case.
